Results as given in patent US9006487B2, “Amine-containing lipids and uses thereof” (Massachusetts Institute of Technology, priority 2005, dated 2015).
Where “and” joins values, the source holds several entries; their conditions need not be identical. Equal values may be shown once.

System: cos-7 cells
Assay: DNA transfection: luciferase expression relative to Lipofectamine 2000
Format: cell-based
Conditions: for Luciferase expression as a percentage of that achieved using Lipofectamine 2000: 300 ng Luciferase DNA per well, luciferase assay after 48 hours; for luciferase expression (second part of table, values relative to LIPO2000): 300 ng of DNA per well
Procedure, shortened: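 cos-7 cells were transfected with 300 ng/well luciferase DNA complexed with lipid at ratios from 2.5 to 25 w/w. Bright-Glo luminescence was read after 48 hours and converted to ng luciferase by standard curve. Data are percent of the Lipofectamine 2000 control (2.5 w/w).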

| Structure (SMILES) | Luciferase expression as a percentage of that achieved using Lipofectamine 2000 (lipid/DNA 2.5 w/w) | Luciferase expression as a percentage of that achieved using Lipofectamine 2000 (lipid/DNA 5 w/w) | Luciferase expression as a percentage of that achieved using Lipofectamine 2000 (lipid/DNA 10 w/w) | Luciferase expression as a percentage of that achieved using Lipofectamine 2000 (lipid/DNA 15 w/w) | Luciferase expression as a percentage of that achieved using Lipofectamine 2000 (lipid/DNA 20 w/w) | Luciferase expression as a percentage of that achieved using Lipofectamine 2000 (lipid/DNA 25 w/w) | luciferase expression (second part of table, values relative to LIPO2000) (lipid/DNA 2.5 w/w) | luciferase expression (second part of table, values relative to LIPO2000) (lipid/DNA 5 w/w) | luciferase expression (second part of table, values relative to LIPO2000) (lipid/DNA 10 w/w) | luciferase expression (second part of table, values relative to LIPO2000) (lipid/DNA 15 w/w) | luciferase expression (second part of table, values relative to LIPO2000) (lipid/DNA 20 w/w) | luciferase expression (second part of table, values relative to LIPO2000) (lipid/DNA 25 w/w) |
| --- | --- | --- | --- | --- | --- | --- | --- | --- | --- | --- | --- | --- |
| CCCCCCCCCCCCCCOC(=O)CCN(CCC(=O)OCCCCCCCCCCCCCC)C1CCC(O)CC1 (stereo not drawn) [LF38] | 0.8% | 0.9% | 0.9% | 0.9% | 0.8% | 1.0% | – | – | – | – | – | – |
| CCCCCCCCCCCCCCOC(=O)CCN(C)CCN(C)CCC(=O)OCCCCCCCCCCCCCC [LF60] | 0.4% | 0.4% | 0.5% | 0.5% | 0.5% | 0.5% | – | – | – | – | – | – |
| CCCCCCCCCCCCCCOC(=O)CCN(CC)CCN(CC)CCC(=O)OCCCCCCCCCCCCCC [LF61] | 0.1% | 0.1% | 0.1% | 0.1% | 0.1% | 0.1% | – | – | – | – | – | – |
| CCCCCCCCCCCCCCOC(=O)CCN(CCN(CCC(=O)OCCCCCCCCCCCCCC)C(C)C)C(C)C [LF62] | 0.1% | 0.1% | 0.2% | 0.1% | 0.4% | 0.2% | – | – | – | – | – | – |
| CCCCCCCCCCCCCCOC(=O)CCN1CCCN(CCC(=O)OCCCCCCCCCCCCCC)CC1 [LF70] | 0.1% | 0.1% | 0.2% | 0.3% | 0.2% | 0.3% | – | – | – | – | – | – |
| CCCCCCCCCCCCCCOC(=O)CCN(CCC(=O)OCCCCCCCCCCCCCC)CCN(CC)CC [LF75] | 0.7% | 1.0% | 0.7% | 1.9% | 1.7% | 1.7% | – | – | – | – | – | – |
| CCCCCCCCCCCCCCOC(=O)CCN(CCC(=O)OCCCCCCCCCCCCCC)CCN1CCCC1 [LF76] | 1.7% | 5.6% | 9.8% | 24.3% | 22.2% | 19.5% | – | – | – | – | – | – |
| CCCCCCCCCCCCCCOC(=O)CCN(CCC(=O)OCCCCCCCCCCCCCC)CCC1CCCN1C (stereo not drawn) [LF77] | 3.7% | 25.1% | 28.2% | 24.1% | 17.0% | 22.1% | – | – | – | – | – | – |
| CCCCCCCCCCCCCCOC(=O)CCN(CCC(=O)OCCCCCCCCCCCCCC)C(C)CN(C)C (stereo not drawn) [LF79] | 0.1% | 0.3% | 0.3% | 0.3% | 0.3% | 0.3% | – | – | – | – | – | – |
| CCCCCCCCCCCCCCOC(=O)CCN(CCCN(C)C)CCC(=O)OCCCCCCCCCCCCCC [LF80] | 2.5% | 35.1% | 35.5% | 34.3% | 19.9% | 14.8% | – | – | – | – | – | – |
| CCCCCCCCCCCCCCOC(=O)CCN(CCCN(CC)CC)CCC(=O)OCCCCCCCCCCCCCC [LF81] | 0.5% | 1.6% | 1.5% | 4.9% | 4.6% | 4.0% | – | – | – | – | – | – |
| CCCCCCCCCCCCCCOC(=O)CCN(CCC(=O)OCCCCCCCCCCCCCC)CCN1CCCCC1 [LF82] | 0.4% | 0.3% | 0.7% | 0.5% | 0.6% | 0.8% | – | – | – | – | – | – |
| CCCCCCCCCCCCCCOC(=O)CCN(CCC(=O)OCCCCCCCCCCCCCC)CCN(CCO)CCO [LF86] | 21.5% | 17.9% | 19.6% | 21.2% | 10.5% | 10.4% | – | – | – | – | – | – |
| CCCCCCCCCCCCCCOC(=O)CCN(CCCN(CCO)CCO)CCC(=O)OCCCCCCCCCCCCCC [LF87] | 19.4% | 11.3% | 30.2% | 13.3% | 11.0% | 10.0% | – | – | – | – | – | – |
| CCCCCCCCCCCCCCOC(=O)CCN(CCC(=O)OCCCCCCCCCCCCCC)CCN1CCOCC1 [LF90] | 0.4% and 0.5% | 0.5% and 0.4% | 0.3% and 0.7% | 1.3% and 0.4% | 1.1% and 0.4% | 1.5% and 0.4% | – | – | – | – | – | – |
| CCCCCCCCCCCCCCOC(=O)CCN(CCCN1CCOCC1)CCC(=O)OCCCCCCCCCCCCCC [LF91] | 0.5% | 0.5% | 0.8% | 1.4% | 1.3% | 1.6% | – | – | – | – | – | – |
| CCCCCCCCCCCCCCOC(=O)CCN(CCCn1ccnc1)CCC(=O)OCCCCCCCCCCCCCC [LF93] | 32.0% | 50.4% | 15.0% | 150.7% | 143.2% | 171.3% | 32.0 | 50.4 | 15.0 | 150.7 | 143.2 | 171.3 |
| CCCCCCCCCCCCCCOC(=O)CCN(CCC(=O)OCCCCCCCCCCCCCC)CCN(CCC(=O)OCCCCCCCCCCCCCC)CCC(=O)OCCCCCCCCCCCCCC [LF99] | 32.2% | 49.8% | 26.5% | 10.7% | 6.0% | 6.2% | 32.2 | 49.8 | 26.5 | 10.7 | 6.0 | 6.2 |
| CCCCCCCCCCCCCCCOC(=O)CCN(CCCOC)CCC(=O)OCCCCCCCCCCCCCCC [LG1] | 0.0% | 0.0% | 0.0% | 0.0% | 0.0% | 0.0% | – | – | – | – | – | – |
